# Results taken from patent US4330529A, “Antibacterial composition” (Fujisawa Pharmaceutical Co., Ltd., priority 1979, dated 1982).
# Like-named read-outs stand apart in the source and are kept apart here.
# Tests used:
# [1] = system: Escherichia coli 82; assay: MIC and FIC, Nutrient agar (Test 7); format: cell-based; details: E. coli 82, 18 h
# Experimental: (§1) FIC values and FIC Index were calculated in substantially the same manner as described in Test 1.
# [2] = system: Klebsiella pneumoniae NCTC 418; assay: MIC and FIC, Nutrient agar (Tests 2, 3); format: cell-based; details: NCTC418, K. pneumoniae NCTC 418, 20 h
# Experimental: (§2) After the incubation was carried out at 37° C. for 20 hours, MIC values were determined.
# [3] = system: Serratia marcescens 9; assay: MIC and FIC, Nutrient agar (Test 6); format: cell-based; details: Serratia marcescens; S. marcescens 9; 18 h; read-out: MIC
# Experimental: as §1
# [4] = system: Shigella flexneri Ia EW-8; assay: MIC and FIC, Nutrient agar (Test 2); format: cell-based; details: IAEW8, S. flexneri Ia EW-8, 20 h
# Experimental: as §2
# [5] = system: Pseudomonas aeruginosa No.14; assay: MIC and FIC, Nutrient agar, multiple inoculator (Test 4); format: cell-based; details: P. aeruginosa No.14, 10^8 cells/ml, 20 h
# Experimental: as §2, §1
# [6] = system: Proteus vulgaris 22; assay: MIC and FIC, Nutrient agar (Test 9); format: cell-based; details: P. vulgaris 22, 18 h
# Experimental: as §1
# [7] = system: Alcaligenes faecalis 1311-1; assay: MIC and FIC, Nutrient agar (Test 2); format: cell-based; details: 13111, A. faecalis 1311-1, 20 h
# Experimental: as §2, §1
# [8] = system: Salmonella enteritidis 1891; assay: MIC and FIC, Nutrient agar (Test 2); format: cell-based; details: Salmonella enterica; S. enteritidis 1891; 20 h
# Experimental: as §2
# [9] = system: Escherichia coli 1341-18R^+; assay: MIC and FIC, Nutrient agar (Test 3); format: cell-based; details: 20 h
# [10] = system: Proteus vulgaris IAM-1025; assay: MIC and FIC, Nutrient agar (Test 2); format: cell-based; details: IAM1025, P. vulgaris IAM-1025, 20 h
# Experimental: as §2, §1
# [11] = system: Klebsiella pneumoniae 8; assay: Isobologram, growth in Nutrient broth in various combination ratios (Test 8); format: cell-based; set-up: key: +: the test microorganism grew; -: the test microorganism did not grow; details: gentamicin sulfate 0
# Experimental: After the incubation was carried out at 37° C. for 18 hours, the growth of the test organism was observed.
# [12] = system: Salmonella typhimurium 1406; assay: MIC and FIC, Nutrient agar (Tests 2, 3); format: cell-based; details: Salmonella enterica, TYPHIMURIUM, 20 h
# [13] = system: Pseudomonas aeruginosa No.15; assay: MIC and FIC, Nutrient agar, multiple inoculator (Test 4); format: cell-based; details: P. aeruginosa No.15, 10^8 cells/ml, 20 h
# Experimental: as §2, §1
# [14] = system: Serratia marcescens 1421-4; assay: MIC and FIC, Nutrient agar (Tests 2, 3); format: cell-based; details: Serratia marcescens, 14214, 20 h
# [15] = system: Proteus rettgeri 1434-3; assay: MIC and FIC, Nutrient agar (Test 3); format: cell-based; details: Providencia rettgeri, 14343; P. rettgeri 1434-3; 20 h
# Experimental: as §2, §1
# [16] = system: Proteus mirabilis 48; assay: MIC and FIC, Nutrient agar (Test 7); format: cell-based; details: P. mirabilis 48, 18 h
# Experimental: as §1
# [17] = system: Escherichia coli No.14; assay: MIC and FIC, Nutrient agar, multiple inoculator (Test 4); format: cell-based; details: E. coli No.14, 10^8 cells/ml, 20 h
# Experimental: as §2
# [18] = system: Enterobacter cloacae 18; assay: MIC and FIC, Nutrient agar (Tests 7, 9); format: cell-based; details: E. cloacae 18, 18 h
# Experimental: as §1
# [19] = system: Pseudomonas aeruginosa No.12; assay: MIC and FIC, Nutrient agar, multiple inoculator (Test 5); format: cell-based; details: Pseudomonas aeruginosa; P. aeruginosa No.12; 10^8 cells/ml, 20 h; read-out: MIC
# Experimental: as §2, §1
# [20] = system: Citrobacter freundii 63; assay: MIC and FIC, Nutrient agar (Test 9); format: cell-based; details: C. freundii 63, 18 h
# Experimental: as §1
# [21] = system: Proteus morganii 1433-2; assay: MIC and FIC, Nutrient agar (Tests 2, 3); format: cell-based; details: Morganella morganii, 14332; P. morganii 1433-2; 20 h
# Experimental: as §2
# [22] = system: Enterobacter aerogenes 25; assay: microbe, parasite or virus in culture; details: Klebsiella aerogenes, 25, 18 h
# [23] = system: Proteus mirabilis 5; assay: MIC and FIC, Nutrient agar (Test 7); format: cell-based; details: P. mirabilis 5, 18 h
# Experimental: as §1
# [24] = system: Escherichia coli 116; assay: MIC and FIC, Nutrient agar (Test 7); format: cell-based; details: E. coli 116, 18 h
# Experimental: as §1
# [25] = system: Staphylococcus aureus 2; assay: MIC and FIC, Nutrient agar (Test 7); format: cell-based; details: S. aureus 2, 18 h
# Experimental: as §1
# [26] = system: Staphylococcus aureus 3; assay: MIC and FIC, Nutrient agar (Tests 6, 7); format: cell-based; details: Staphylococcus aureus; S. aureus 3; 18 h; read-out: MIC
# Experimental: as §1
# [27] = system: Pseudomonas aeruginosa No.11; assay: MIC and FIC, Nutrient agar, multiple inoculator (Test 5); format: cell-based; details: Pseudomonas aeruginosa; P. aeruginosa No.11; 10^8 cells/ml, 20 h; read-out: MIC
# Experimental: as §2, §1
# [28] = system: Proteus vulgaris 7; assay: MIC and FIC, Nutrient agar (Tests 7, 9); format: cell-based; details: P. vulgaris 7
# [29] = system: Proteus mirabilis 1432-75; assay: MIC and FIC, Nutrient agar (Tests 2, 3); format: cell-based; details: Proteus mirabilis, 143275, 20 h
# [30] = system: Pseudomonas aeruginosa No.7; assay: MIC and FIC, Nutrient agar, multiple inoculator (Test 4); format: cell-based; details: P. aeruginosa No.7, 10^8 cells/ml, 20 h
# Experimental: as §2, §1
# [31] = system: Citrobacter freundii 35; assay: MIC and FIC, Nutrient agar (Tests 6, 7, 9); format: cell-based
# [32] = system: Serratia marcescens 4; assay: MIC and FIC, Nutrient agar (Test 9); format: cell-based; details: S. marcescens 4, 18 h
# Experimental: as §1
# [33] = system: Staphylococcus aureus 1; assay: MIC and FIC, Nutrient agar (Test 7); format: cell-based; details: S. aureus 1, 18 h
# Experimental: as §1
# [34] = system: Pseudomonas aeruginosa No.9; assay: MIC and FIC, Nutrient agar, multiple inoculator (Test 4); format: cell-based; details: P. aeruginosa No.9, 10^8 cells/ml, 20 h
# Experimental: as §2, §1
# [35] = system: Enterobacter aerogenes 1402-10; assay: MIC and FIC, Nutrient agar (Tests 2, 3); format: cell-based; details: Klebsiella aerogenes, 140210, 20 h
# [36] = system: Salmonella paratyphi A-1015; assay: MIC and FIC, Nutrient agar (Test 2); format: cell-based; details: Salmonella enterica; S. paratyphi A-1015; 20 h
# Experimental: as §2, §1
# [37] = system: Serratia marcescens 27; assay: MIC and FIC, Nutrient agar (Test 7); format: cell-based; details: S. marcescens 27, 18 h
# Experimental: as §1
smiles,measurement,setting,value
O=CN(O)CCCP(=O)(O)O [A (Table 2)],MIC,[1],100 µg/mL
same,MIC,[2],25 µg/mL
same,MIC,[3],200 µg/mL
same,MIC,[4],1.56 µg/mL
same,MIC,[5],400 µg/mL
same,MIC,[6],6.25 µg/mL
same,MIC,[7],≥ 400 µg/mL
same,MIC,[8],0.78 µg/mL
same,MIC,[9],6.25 µg/mL
same,MIC,[10],1.56 µg/mL
same,growth of the test organism,[11]; phosphonic acid salt 0.78 mcg/ml,+
same,growth of the test organism,[11]; phosphonic acid salt 1.56 mcg/ml,+
same,growth of the test organism,[11]; phosphonic acid salt 3.13 mcg/ml,+
same,growth of the test organism,[11]; phosphonic acid salt 6.25 mcg/ml,+
same,growth of the test organism,[11]; phosphonic acid salt 12.5 mcg/ml,+
same,growth of the test organism,[11]; phosphonic acid salt 25 mcg/ml,-
same,MIC,[12],6.25 µg/mL
same,MIC,[13],> 800 µg/mL
same,MIC,[14],50 µg/mL
same,MIC,[15],1.56 µg/mL
same,MIC,[16],25 µg/mL
same,MIC,[17],25 µg/mL
same,MIC,[18]; listed as A (Table 14),100 µg/mL
same,MIC,"[18]; Enterobacter cloacae, read-out: MIC",200 µg/mL
same,MIC,[19],800 µg/mL
same,MIC,[20],50 µg/mL
same,MIC,[21],≥ 400 µg/mL
same,MIC,[22],100 µg/mL
same,MIC,[23],25 µg/mL
same,MIC,[24],200 µg/mL
same,MIC,[25],200 µg/mL
same,MIC,[26],400 µg/mL
same,MIC,[27],> 800 µg/mL
same,MIC,"[28]; 18 h, listed as A (Table 15)",50 µg/mL
same,MIC,"[28]; Proteus vulgaris, 7, 18 h",25 µg/mL
same,MIC,[29],1.56 µg/mL
same,MIC,[30],200 µg/mL
same,MIC,"[31]; C. freundii 35, 18 h, listed as A (Table 9)",100 µg/mL
same,MIC,"[31]; C. freundii 35, 18 h, listed as A (Table 10)",100 µg/mL
same,MIC,"[31]; Citrobacter freundii, 35, 18 h",50 µg/mL
same,MIC,"[31]; Citrobacter freundii, 35, 18 h, C. freundii 35, 18 h",100 µg/mL
same,MIC,[32],50 µg/mL
same,MIC,[33],400 µg/mL
same,MIC,[34],> 800 µg/mL
same,MIC,[35],6.25 µg/mL
same,MIC,[36],6.25 µg/mL
same,MIC,[37],400 µg/mL
